In PubChem BioAssay (NCI):
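Protocol summary: plate cells (96-well), add compound at 5 concentrations, incubate 48 h, interpolate endpoints linearly. TGI denotes the concentration required for complete inhibition of growth.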

Experiments:
Assay in all cases: DTP human tumour cell line panel, 48 h
786-0 renal = test system: 786-0 renal
A549 NSCLC = test system: A549 NSCLC
ACHN renal = test system: ACHN renal
BT-549 breast = test system: BT-549 breast
CAKI-1 renal = test system: CAKI-1 renal
COLO 205 colon = test system: COLO 205 colon
DU-145 prostate = test system: DU-145 prostate
HCC-2998 colon = test system: HCC-2998 colon
HCT-116 colon = test system: HCT-116 colon
HCT-15 colon = test system: HCT-15 colon
HL-60(TB) leukemia = test system: HL-60(TB) leukemia
HOP-62 NSCLC = test system: HOP-62 NSCLC
HOP-92 NSCLC = test system: HOP-92 NSCLC
HS 578T breast = test system: HS 578T breast
HT29 colon = test system: HT29 colon
IGROV1 ovarian = test system: IGROV1 ovarian
K-562 leukemia = test system: K-562 leukemia
KM12 colon = test system: KM12 colon
LOX IMVI melanoma = test system: LOX IMVI melanoma
M14 melanoma = test system: M14 melanoma
MALME-3M melanoma = test system: MALME-3M melanoma
MCF7 breast = test system: MCF7 breast
MDA-MB-231 breast = test system: MDA-MB-231 breast
MDA-MB-435 = test system: MDA-MB-435
MDA-N = test system: MDA-N
MOLT-4 leukemia = test system: MOLT-4 leukemia
NCI-H23 lung = test system: NCI-H23 lung
NCI-H522 lung = test system: NCI-H522 lung
NCI/ADR-RES ovarian = test system: NCI/ADR-RES ovarian
OVCAR-3 ovarian = test system: OVCAR-3 ovarian
OVCAR-4 ovarian = test system: OVCAR-4 ovarian
OVCAR-8 ovarian = test system: OVCAR-8 ovarian
PC-3 prostate = test system: PC-3 prostate
RPMI-8226 leukemia = test system: RPMI-8226 leukemia
SF-268 CNS = test system: SF-268 CNS
SF-295 CNS = test system: SF-295 CNS
SF-539 CNS = test system: SF-539 CNS
SK-MEL-28 melanoma = test system: SK-MEL-28 melanoma
SK-MEL-5 melanoma = test system: SK-MEL-5 melanoma
SK-OV-3 ovarian = test system: SK-OV-3 ovarian
SN12C renal = test system: SN12C renal
SNB-19 CNS = test system: SNB-19 CNS
SNB-75 CNS = test system: SNB-75 CNS
SR leukemia = test system: SR leukemia
SW-620 colon = test system: SW-620 colon
T-47D breast = test system: T-47D breast
TK-10 renal = test system: TK-10 renal
U251 CNS = test system: U251 CNS
UACC-257 melanoma = test system: UACC-257 melanoma
UACC-62 melanoma = test system: UACC-62 melanoma
A498 renal = test system: A498 renal
CCRF-CEM leukemia = test system: CCRF-CEM leukemia
EKVX NSCLC = test system: EKVX NSCLC
NCI-H226 lung = test system: NCI-H226 lung
NCI-H460 lung = test system: NCI-H460 lung
OVCAR-5 ovarian = test system: OVCAR-5 ovarian
RXF 393 renal = test system: RXF 393 renal
SK-MEL-2 melanoma = test system: SK-MEL-2 melanoma
UO-31 renal = test system: UO-31 renal

Measured: TGI

Cc1nn(-c2ccccc2)c2c1N=C(C(=O)O)CC(c1ccccc1)=N2
not listed: A498 renal | CCRF-CEM leukemia | EKVX NSCLC | NCI-H226 lung | NCI-H460 lung | OVCAR-5 ovarian | RXF 393 renal | SK-MEL-2 melanoma | UO-31 renal
> 10 µM: all other assays above

CCc1nc(N)nc(N)c1-c1ccc(Cl)c(N=NN(C)C)c1
> 91.4 µM: HT29 colon
50.2 µM: SK-MEL-5 melanoma
> 94.8 µM: BT-549 breast
> 73.9 µM: HOP-62 NSCLC
62.1 µM: SK-MEL-2 melanoma
> 91.5 µM: OVCAR-3 ovarian
> 97.3 µM: KM12 colon
> 52.9 µM: HL-60(TB) leukemia
99.5 µM: A549 NSCLC
40.5 µM: NCI-H460 lung
> 75.5 µM: SK-MEL-28 melanoma
> 46.4 µM: OVCAR-4 ovarian
73.5 µM: MOLT-4 leukemia
> 65 µM: K-562 leukemia
44.8 µM: SR leukemia
99.6 µM: NCI-H522 lung
> 95.7 µM: 786-0 renal
50.7 µM: COLO 205 colon
> 75.1 µM: HCT-116 colon
49 µM: RPMI-8226 leukemia
> 93 µM: T-47D breast
> 95.5 µM: IGROV1 ovarian
> 92.1 µM: MDA-MB-435
58.9 µM: M14 melanoma
> 95.2 µM: EKVX NSCLC
76.8 µM: UACC-62 melanoma
> 73.2 µM: CCRF-CEM leukemia
62.9 µM: HCC-2998 colon
> 89.7 µM: ACHN renal
> 70.4 µM: UO-31 renal
> 81.6 µM: MCF7 breast
56.9 µM: SF-539 CNS
> 96.9 µM: CAKI-1 renal
not listed: MALME-3M melanoma
> 100 µM: all other assays above
